Measured values published in ChEMBL document CHEMBL1201862, “PubChem BioAssay data set” (2004).
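Cultured in 96-well plates, cells were exposed to test compound for 48 hours across five concentrations. Here, GI50 denotes the concentration required for 50% inhibition of growth.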 Active and inactive are the calls of the source. Rule as the data show it: active = GI50 up to about 1.1 µM and inactive = higher.

Key:
Assay in all cases: growth of human tumour cells (NCI), 48 h
UO-31 = system: UO-31
SNB-19 = system: SNB-19
SR = system: SR
OVCAR-4 = system: OVCAR-4
A498 = system: A498
EKVX = system: EKVX
LOX IMVI = system: LOX IMVI
HCC 2998 = system: HCC 2998
DU-145 = system: DU-145
NCI-H522 = system: NCI-H522
PC-3 = system: PC-3
MDA-MB-435 = system: MDA-MB-435
K562 = system: K562
NCI/ADR-RES = system: NCI/ADR-RES
SNB-75 = system: SNB-75
ACHN = system: ACHN
HOP-62 = system: HOP-62
SK-MEL-28 = system: SK-MEL-28
COLO 205 = system: COLO 205
SK-MEL-5 = system: SK-MEL-5
SF-295 = system: SF-295
MDA-N = system: MDA-N
CAKI-1 = system: CAKI-1
SK-MEL-2 = system: SK-MEL-2
A549 = system: A549
NCI-H23 = system: NCI-H23
SF-539 = system: SF-539
TK-10 = system: TK-10
OVCAR-8 = system: OVCAR-8
T47D = system: T47D
OVCAR-3 = system: OVCAR-3
MCF7 = system: MCF7
BT-549 = system: BT-549
HCT-15 = system: HCT-15
RXF 393 = system: RXF 393
KM12 = system: KM12
Malme-3M = system: Malme-3M
RPMI-8226 = system: RPMI-8226
SF-268 = system: SF-268
UACC-62 = system: UACC-62
SK-OV-3 = system: SK-OV-3
MOLT-4 = system: MOLT-4
IGROV-1 = system: IGROV-1
HT-29 = system: HT-29
HCT-116 = system: HCT-116
SN12C = system: SN12C
SW-620 = system: SW-620
MDA-MB-231 = system: MDA-MB-231
CCRF-CEM = system: CCRF-CEM
NCI-H226 = system: NCI-H226
NCI-H460 = system: NCI-H460
UACC-257 = system: UACC-257
OVCAR-5 = system: OVCAR-5
U-251 = system: U-251
M14 = system: M14
786-0 = system: 786-0
HOP-92 = system: HOP-92
HL-60 = system: HL-60

## Cc1cccc(NC(Nc2cccc(C)c2)=C(C(Cl)=C(Cl)Cl)[N+](=O)[O-])c1
UO-31
  GI50: 11.8 µM (inactive)
SNB-19
  GI50: 25.8 µM (inactive)
SR
  GI50: 3.81 µM (inactive)
OVCAR-4
  GI50: 22.8 µM (inactive)
A498
  GI50: 36.7 µM (inactive)
EKVX
  GI50: 18.1 µM (inactive)
LOX IMVI
  GI50: 8.99 µM (inactive)
HCC 2998
  GI50: 22.8 µM (inactive)
DU-145
  GI50: 18.7 µM (inactive)
NCI-H522
  GI50: 6.52 µM (inactive)
PC-3
  GI50: 19.9 µM (inactive)
MDA-MB-435
  GI50: 8.87 µM (inactive)
K562
  GI50: 50.8 µM (inactive)
NCI/ADR-RES
  GI50: 14 µM (inactive)
SNB-75
  GI50: 25.2 µM (inactive)
ACHN
  GI50: 15.7 µM (inactive)
HOP-62
  GI50: 16.7 µM (inactive)
SK-MEL-28
  GI50: 17.3 µM (inactive)
COLO 205
  GI50: 12.6 µM (inactive)
SK-MEL-5
  GI50: 5.98 µM (inactive)
SF-295
  GI50: 14 µM (inactive)
MDA-N
  GI50: 7.45 µM (inactive)
CAKI-1
  GI50: 14.7 µM (inactive)
SK-MEL-2
  GI50: 16.4 µM (inactive)
A549
  GI50: 22 µM (inactive)
NCI-H23
  GI50: 9.12 µM (inactive)
SF-539
  GI50: 10.1 µM (inactive)
TK-10
  GI50: 12.4 µM (inactive)
OVCAR-8
  GI50: 12.3 µM (inactive)
T47D
  GI50: 11.9 µM (inactive)
OVCAR-3
  GI50: 9.31 µM (inactive)
MCF7
  GI50: 22.3 µM (inactive)
BT-549
  GI50: 11.6 µM (inactive)
HCT-15
  GI50: 13.1 µM
RXF 393
  GI50: 3.94 µM (inactive)
KM12
  GI50: 19.5 µM (inactive)
Malme-3M
  GI50: 14.4 µM (inactive)
RPMI-8226
  GI50: 8.11 µM (inactive)
SF-268
  GI50: 13.6 µM (inactive)
UACC-62
  GI50: 13.4 µM (inactive)
SK-OV-3
  GI50: 22.3 µM (inactive)
MOLT-4
  GI50: 2.17 µM (inactive)
IGROV-1
  GI50: 2.28 µM (inactive)
HT-29
  GI50: 15.3 µM (inactive)
HCT-116
  GI50: 5.31 µM (inactive)
SN12C
  GI50: 7.59 µM (inactive)
SW-620
  GI50: 14.8 µM (inactive)
MDA-MB-231
  GI50: 3.38 µM (inactive)
CCRF-CEM
  GI50: 63.5 µM (inactive)
NCI-H226
  GI50: 3.35 µM (inactive)
NCI-H460
  GI50: 14.2 µM (inactive)
UACC-257
  GI50: 19.3 µM (inactive)
OVCAR-5
  GI50: 19.6 µM (inactive)
U-251
  GI50: 12.6 µM (inactive)
M14
  GI50: 16.1 µM (inactive)
786-0
  GI50: 14.7 µM (inactive)

## COC(=O)C(N)CCCC(N)C(=O)NC(C)C(=O)NC(CCC(=O)NCCCNc1ccc([N+](=O)[O-])c2[nH]c3ccccc3c(=O)c12)C(N)=O (stereo not given)
UO-31
  GI50: 3.49 µM (inactive)
SNB-19
  GI50: 4 µM (inactive)
OVCAR-4
  GI50: 6.15 µM (inactive)
A498
  GI50: 15.1 µM (inactive)
EKVX
  GI50: 7.78 µM (inactive)
LOX IMVI
  GI50: 3.24 µM (inactive)
HCC 2998
  GI50: 6.82 µM (inactive)
DU-145
  GI50: 6.56 µM (inactive)
PC-3
  GI50: 5.56 µM (inactive)
MDA-MB-435
  GI50: 5.01 µM (inactive)
K562
  GI50: 6.67 µM (inactive)
NCI/ADR-RES
  GI50: 6.07 µM (inactive)
SNB-75
  GI50: 9.89 µM (inactive)
ACHN
  GI50: 3.68 µM (inactive)
HOP-62
  GI50: 7.26 µM (inactive)
SK-MEL-28
  GI50: 10.2 µM (inactive)
COLO 205
  GI50: 3.85 µM (inactive)
SK-MEL-5
  GI50: 11.7 µM (inactive)
SF-295
  GI50: 6.24 µM (inactive)
CAKI-1
  GI50: 6.64 µM (inactive)
SK-MEL-2
  GI50: 16.8 µM (inactive)
A549
  GI50: 3.13 µM (inactive)
NCI-H23
  GI50: 5.68 µM (inactive)
TK-10
  GI50: 10 µM (inactive)
OVCAR-8
  GI50: 3.37 µM (inactive)
T47D
  GI50: 11.6 µM (inactive)
OVCAR-3
  GI50: 10.8 µM (inactive)
HOP-92
  GI50: 11.4 µM (inactive)
BT-549
  GI50: 12.7 µM (inactive)
HCT-15
  GI50: 3.67 µM
RXF 393
  GI50: 9.55 µM (inactive)
KM12
  GI50: 4.91 µM (inactive)
RPMI-8226
  GI50: 3.19 µM (inactive)
SF-268
  GI50: 3.25 µM (inactive)
UACC-62
  GI50: 2.42 µM (inactive)
SK-OV-3
  GI50: 11.4 µM (inactive)
HCT-116
  GI50: 2.33 µM (inactive)
SW-620
  GI50: 3.7 µM (inactive)
MDA-MB-231
  GI50: 10.1 µM (inactive)
CCRF-CEM
  GI50: 3.9 µM (inactive)
NCI-H226
  GI50: 9.55 µM (inactive)
NCI-H460
  GI50: 3.59 µM (inactive)
UACC-257
  GI50: 8.79 µM (inactive)
OVCAR-5
  GI50: 10.4 µM (inactive)
U-251
  GI50: 4.66 µM (inactive)
M14
  GI50: 5.4 µM (inactive)
786-0
  GI50: 4.53 µM (inactive)

## CCOC(=O)CCSS(=O)(=O)c1ccccc1
UO-31
  GI50: > 10 µM (inactive)
SNB-19
  GI50: > 100 µM (inactive)
OVCAR-4
  GI50: > 100 µM (inactive)
A498
  GI50: > 100 µM (inactive)
EKVX
  GI50: > 100 µM (inactive)
LOX IMVI
  GI50: 23.3 µM (inactive)
HCC 2998
  GI50: > 100 µM (inactive)
DU-145
  GI50: > 100 µM (inactive)
PC-3
  GI50: > 100 µM (inactive)
MDA-MB-435
  GI50: > 100 µM (inactive)
NCI/ADR-RES
  GI50: > 100 µM (inactive)
SNB-75
  GI50: > 100 µM (inactive)
ACHN
  GI50: > 100 µM (inactive)
HOP-62
  GI50: > 100 µM (inactive)
SK-MEL-28
  GI50: > 100 µM (inactive)
COLO 205
  GI50: 97.7 µM (inactive)
SK-MEL-5
  GI50: 62.2 µM (inactive)
SF-295
  GI50: > 100 µM (inactive)
MDA-N
  GI50: > 100 µM (inactive)
CAKI-1
  GI50: > 100 µM (inactive)
SK-MEL-2
  GI50: > 100 µM (inactive)
A549
  GI50: > 100 µM (inactive)
NCI-H23
  GI50: > 100 µM (inactive)
TK-10
  GI50: > 100 µM (inactive)
OVCAR-8
  GI50: > 100 µM (inactive)
T47D
  GI50: > 100 µM (inactive)
OVCAR-3
  GI50: > 100 µM (inactive)
HOP-92
  GI50: 86.7 µM (inactive)
MCF7
  GI50: 28.6 µM (inactive)
BT-549
  GI50: > 100 µM (inactive)
HCT-15
  GI50: 53.2 µM
RXF 393
  GI50: > 100 µM (inactive)
KM12
  GI50: > 100 µM (inactive)
RPMI-8226
  GI50: 35 µM (inactive)
UACC-62
  GI50: > 100 µM (inactive)
SK-OV-3
  GI50: > 100 µM (inactive)
SN12C
  GI50: > 100 µM (inactive)
SW-620
  GI50: 22.2 µM (inactive)
CCRF-CEM
  GI50: 28.4 µM (inactive)
NCI-H226
  GI50: > 100 µM (inactive)
NCI-H460
  GI50: > 100 µM (inactive)
UACC-257
  GI50: > 100 µM (inactive)
HL-60
  GI50: 35.8 µM (inactive)
OVCAR-5
  GI50: 92.9 µM (inactive)
U-251
  GI50: > 100 µM (inactive)
M14
  GI50: 64.4 µM (inactive)
786-0
  GI50: 26 µM (inactive)
